This passage reports TGI and GI50 results from PubChem BioAssay (NCI).

Test systems include HOP-62 NSCLC; UO-31 renal; OVCAR-4 ovarian; SR leukemia; HS 578T breast; MDA-MB-435; M14 melanoma; NCI/ADR-RES ovarian; TK-10 renal; PC-3 prostate; U251 CNS.
Common to all, as to assay: NCI anticancer screen, dose series, 48 h

Several values for one entry are separate records, joined by “and”; a condition that tells them apart may be missing. Equal entries are not always repeated.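 Tested at 5 concentrations; 48 h exposure; 96-well plates; endpoints linearly interpolated, else capped at highest concentration. GI50 marks 50% less growth. The concentration for full growth arrest is given as TGI.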

As for `CC(=O)OCC1OC(n2c(S)c(C#N)c(-c3ccccc3)c(C#N)c2=O)C(OC(C)=O)C(OC(C)=O)C1OC(C)=O` (stereo not drawn), the TGI is 52.9 µM and 75.7 µM in the experiment with HOP-62 NSCLC; > 100 µM and 87.3 µM in the experiment on UO-31 renal; > 100 µM and 83.3 µM in the experiment with OVCAR-4 ovarian; > 100 µM and 57.7 µM in the experiment on SR leukemia; more than 100 µM with HS 578T breast; > 100 µM and 34.6 µM with MDA-MB-435. Besides, the TGI in the experiment with M14 melanoma is more than 100 µM; in the experiment with NCI/ADR-RES ovarian it was more than 100 µM; with TK-10 renal, > 100 µM and 86.5 µM; in the experiment on PC-3 prostate, more than 100 µM; with U251 CNS, more than 100 µM. Moreover, the GI50 in the experiment with UO-31 renal was > 68.1 µM and 29.1 µM; in the experiment on OVCAR-4 ovarian, > 100 µM and 30.6 µM; in the experiment with SR leukemia, > 100 µM and 32.1 µM; in the experiment on MDA-MB-435, > 100 µM and 17.2 µM; with M14 melanoma, > 100 µM and 36.5 µM; with TK-10 renal, 90.7 µM and 24.9 µM. Further, in the experiment with PC-3 prostate, the GI50 is > 100 µM and 43.5 µM.
Consider `CC1=C(C)CC2(C=C(C(C)(C)C)C(=O)C(C(C)(C)C)=C2)SC1`, for which the TGI was 37.9 µM in the experiment with HOP-62 NSCLC; 29.7 µM with UO-31 renal; more than 100 µM with OVCAR-4 ovarian; more than 100 µM in the experiment on SR leukemia; 36.8 µM in the experiment with HS 578T breast; 43.6 µM in the experiment on MDA-MB-435. The TGI with M14 melanoma was 99.4 µM; in the experiment with NCI/ADR-RES ovarian it was 39.4 µM; in the experiment with TK-10 renal, 37.9 µM; with PC-3 prostate it was 73.8 µM; in the experiment on U251 CNS, 29.9 µM.
Consider `CC(Oc1ccccc1)C(=O)NNC(=O)OC(C)(C)C` (stereo not drawn), for which the TGI in the experiment on HOP-62 NSCLC, with UO-31 renal, in the experiment on OVCAR-4 ovarian, with SR leukemia, in the experiment on HS 578T breast and with MDA-MB-435 was more than 100 µM in each case. The TGI with M14 melanoma, in the experiment with NCI/ADR-RES ovarian, in the experiment with TK-10 renal, with PC-3 prostate and in the experiment with U251 CNS was more than 100 µM each time.
Regarding `CCOC(=O)/C=C(\C(=O)OCC)n1cc(C)c(=O)n(Cc2cnnn2COCCOC(C)=O)c1=O`, the TGI was 55.6 µM in the experiment on HOP-62 NSCLC; 27.5 µM in the experiment with UO-31 renal; 32 µM in the experiment with OVCAR-4 ovarian; more than 34.7 µM with SR leukemia; 46.8 µM in the experiment with HS 578T breast; 28.1 µM in the experiment on MDA-MB-435. Also, the TGI is 57.5 µM with M14 melanoma; 43.7 µM with NCI/ADR-RES ovarian; 10.8 µM with TK-10 renal; more than 59.2 µM in the experiment on PC-3 prostate; 43.6 µM in the experiment on U251 CNS.
Consider `Cc1ccc2nc(-c3ccc(C(C)(C)C)cc3)oc(=O)c2c1`, for which the TGI amounted to 68.4 µM in the experiment on HOP-62 NSCLC; 70 µM in the experiment with UO-31 renal; 90.3 µM in the experiment with OVCAR-4 ovarian; 59.7 µM with SR leukemia; 81.3 µM in the experiment with HS 578T breast; 43 µM with MDA-MB-435. Moreover, the TGI in the experiment on M14 melanoma is 74 µM; with NCI/ADR-RES ovarian it was 54.2 µM; in the experiment on TK-10 renal it was more than 100 µM; in the experiment with PC-3 prostate, 69.6 µM; in the experiment with U251 CNS, 32.5 µM.
For `O=C1C(c2c(O)[nH]c3ccc(Br)cc23)=Nc2ccc(Br)cc21`, the TGI with HOP-62 NSCLC, with UO-31 renal, with OVCAR-4 ovarian, in the experiment with SR leukemia, with HS 578T breast and in the experiment with MDA-MB-435 was more than 100 µM in each case. For the same compound, the TGI was more than 100 µM in the experiment with M14 melanoma; more than 100 µM in the experiment with NCI/ADR-RES ovarian; more than 100 µM in the experiment with TK-10 renal; more than 100 µM in the experiment with PC-3 prostate; 35 µM in the experiment on U251 CNS.
On to `CC1OC(OC2C(O[C@H]3CC[C@@]4(C)C(=CC[C@H]5[C@@H]6C[C@@H]7O[C@]8(CC[C@@H](C)CO8)[C@@H](C)[C@@H]7[C@@]6(C)CC[C@@H]54)C3)OC(CO)C(O)C2O)C(O)C(O)C1O` (stereo partly drawn), for which the TGI in the experiment with HOP-62 NSCLC was found to be 2.67 µM; in the experiment with UO-31 renal, 1.98 µM; in the experiment with OVCAR-4 ovarian, 2.47 µM; in the experiment on SR leukemia it was 6.71 µM; in the experiment with HS 578T breast, 3.85 µM; in the experiment on MDA-MB-435, 2.8 µM. Besides, the TGI with M14 melanoma amounted to 2.44 µM; in the experiment on NCI/ADR-RES ovarian it was 4.64 µM; with TK-10 renal it was 3.57 µM; in the experiment with PC-3 prostate, 1.63 µM; in the experiment with U251 CNS, 1.87 µM.
For `COc1ccc(NCC(=O)Nn2c(-c3ccccc3)nc3ccccc3c2=O)cc1`, the TGI in the experiment on HOP-62 NSCLC, in the experiment on UO-31 renal, with OVCAR-4 ovarian, with SR leukemia, in the experiment with HS 578T breast and in the experiment with MDA-MB-435 was more than 100 µM each time. Further, the TGI in the experiment with M14 melanoma is more than 100 µM; in the experiment with NCI/ADR-RES ovarian, 59.1 µM; in the experiment on TK-10 renal, more than 100 µM; in the experiment on PC-3 prostate it was more than 100 µM; in the experiment on U251 CNS, 87.1 µM.
For `NC(Cc1ccc2nc3c4ccccc4c(=O)cc-3oc2c1)C(=O)O` (stereo not drawn), the TGI with HOP-62 NSCLC was more than 100 µM; in the experiment with UO-31 renal, more than 100 µM; with OVCAR-4 ovarian, more than 100 µM; in the experiment on SR leukemia it was more than 100 µM; with HS 578T breast it was more than 100 µM; in the experiment on MDA-MB-435, 32.3 µM. Moreover, the TGI in the experiment on M14 melanoma, in the experiment with NCI/ADR-RES ovarian, with TK-10 renal, in the experiment with PC-3 prostate and with U251 CNS was more than 100 µM in each case.
Consider `CC(=O)OCC1OC(n2c(Br)nc3c2c(=O)n(C)c(=O)n3C)C(OC(C)=O)C1OC(C)=O` (stereo not drawn), for which the TGI was more than 100 µM with HOP-62 NSCLC; more than 100 µM with UO-31 renal; 83.6 µM with OVCAR-4 ovarian; more than 100 µM with SR leukemia; more than 100 µM in the experiment on HS 578T breast; more than 100 µM with MDA-MB-435. Moreover, the TGI in the experiment on M14 melanoma, with NCI/ADR-RES ovarian, in the experiment with TK-10 renal, in the experiment on PC-3 prostate and in the experiment with U251 CNS was more than 100 µM throughout.
In the case of `Cc1nc2sc(C(=O)c3ccc(Cl)cc3)c(N)c2c(-c2ccccc2Cl)c1C(=O)Nc1ccccc1`, the TGI with HOP-62 NSCLC came out at 37 µM; in the experiment with UO-31 renal, 51.1 µM; with OVCAR-4 ovarian, 41 µM; in the experiment on SR leukemia it was 58.2 µM; with HS 578T breast, 48.7 µM; in the experiment with MDA-MB-435, 33.1 µM. Besides, the TGI came out at 25.8 µM with M14 melanoma; 60 µM in the experiment with NCI/ADR-RES ovarian; 39.3 µM in the experiment on TK-10 renal; 47 µM in the experiment on PC-3 prostate; 37.4 µM with U251 CNS.
